Tests used:
Format in all cases: in vivo
[1] = tested on: leafmining moth (Phyllocnistis Citrella Stainton); assay: Control of leafmining moth: injection into tunnels and application on foliar surface
Excerpt: Efficacy of “avemectin” and the CU co-adjuvant of the invention to control leafmining moth (Phyllocnistis Citrella Stainton.)
Two assays were designed in order to assess the effect of two concentrations of the Coronillo Ultra surfactant and combinations of both products to control leafmining moth in citrus (Phyllocnistis Citrella Stainton.)
One of the assays was geared to testing the action of the direct contact of the products, both pure and in mixtures, with the larvae of the second and third stages by injecting the solution into the tunnels. The second assay aimed at assessing the effect of its application on the foliar surface affected with tunnels. In both assays, methylene blue dye was used as tracer to assess the flow of the solution inside the tunnel and the larvae.
In the treatments applied over the foliar surface, effects were noticed only when the active penetrated the epidermis and came into contact with the insect inside the tunnel.

[2] = tested on: leafmining moth (Phyllocnistis Citrella Stainton); assay: Control of leafmining moth: field test in a five-year vegetable garden
Description: Finally, the above treatments were tested on the field, in a five-year vegetable garden.

[3] = tested on: alfalfa (Medicago Sativa L.); assay: Influence of CU co-adjuvant on the activity of defoliant Paraquat in alfalfa; conditions: Paraquat 1 l/ha, CU 0.25% v/v, emulsion oil 1% v/v, five days after treatment, day-night temperatures 30/21° C.
Description: Another application with agrochemicals was conducted by assessing the influence of the “CU” co-adjuvant of the invention on the activity of defoliant “Paraquat” in alfalfa (Medicago Sativa L.)
For such purpose, the effect of the addition of the surfactant Coronillo Ultra (CU) at 0.25% v/v and emulsion oil at 1% v/v to defoliant Paraquat at a 1 l/ha concentration, in conditions of high and low temperatures during both the day and at night on alfalfa was assessed.

Molecule	effect of avemectin applied over the foliar surface ([1]; high concentrations)	effect of avemectin when injected ([1]; low doses)	control percentage after 14 days [2]	defoliation [3] [%]
avemectin	effective	same effect	low control percentage	
C[n+]1ccc(-c2cc[n+](C)cc2)cc1 [Paraquat]				17
